Experiments:
[1] = 298.15 K; 101.33 kPa; Liquid
[2] = excess molar enthalpy (molar enthalpy of mixing); xn = mol fraction of the nth substance listed; conditions: 298.15 K, 101 kPa, Liquid

COC(=O)[C@H](C)CO [(2R)-3-hydroxy-2-methyl-propanoic acid methyl ester]
Conditions	mass density [kg/m3]
[1]	1067.5

COC(=O)[C@H](C)CO [(2R)-3-hydroxy-2-methyl-propanoic acid methyl ester] + COC(=O)[C@@H](C)CO
[2]
Conditions	excess molar enthalpy [kcal/mol]
x2 = 0.08854	0.000741
x2 = 0.08893	0.000787
x2 = 0.08959	0.00072
x2 = 0.1627	0.00131
x2 = 0.1633	0.00127
x2 = 0.1645	0.0013
x2 = 0.2257	0.00171
x2 = 0.2265	0.00168
x2 = 0.2279	0.00172
x2 = 0.2798	0.00199
x2 = 0.2808	0.00198
x2 = 0.2825	0.002
x2 = 0.3269	0.00218
x2 = 0.328	0.00217
x2 = 0.3298	0.00221
x2 = 0.3682	0.00232
x2 = 0.3693	0.00231
x2 = 0.3713	0.00234
x2 = 0.4048	0.00241
x2 = 0.4059	0.00239
x2 = 0.4079	0.00242
x2 = 0.4373	0.00247
x2 = 0.4385	0.00246
x2 = 0.4405	0.00248
x2 = 0.4665	0.00251
x2 = 0.4677	0.00249
x2 = 0.4697	0.0025
x2 = 0.4928	0.00251
x2 = 0.4939	0.0025
x2 = 0.496	0.0025
x2 = 0.5037	0.00253
x2 = 0.5048	0.00253
x2 = 0.53	0.00252
x2 = 0.5311	0.00252
x2 = 0.5592	0.00248
x2 = 0.5602	0.00249
x2 = 0.5918	0.00242
x2 = 0.5928	0.00243
x2 = 0.6285	0.00233
x2 = 0.6294	0.00233
x2 = 0.6699	0.00218
x2 = 0.6709	0.00218
x2 = 0.7173	0.00196
x2 = 0.7182	0.00198
x2 = 0.7718	0.00167
x2 = 0.7726	0.00168
x2 = 0.8354	0.00125
x2 = 0.836	0.00126
x2 = 0.9103	0.000702
x2 = 0.9107	0.000702

ClC[C@H]1CO1 [(2R)-(chloromethyl)-oxirane]
Conditions	mass density [kg/m3]
[1]	1093.3

ClC[C@H]1CO1 [(2R)-(chloromethyl)-oxirane] + ClC[C@@H]1CO1
[2]
Conditions	excess molar enthalpy [kcal/mol]
x2 = 0.01821	0.000204
x2 = 0.03578	0.000396
x2 = 0.05272	0.000577
x2 = 0.05939	0.000663
x2 = 0.06908	0.000741
x2 = 0.08489	0.000891
x2 = 0.1002	0.00103
x2 = 0.1121	0.00114
x2 = 0.1149	0.00116
x2 = 0.1292	0.00128
x2 = 0.1373	0.00133
x2 = 0.1431	0.00139
x2 = 0.1565	0.0015
x2 = 0.1593	0.00151
x2 = 0.1695	0.00159
x2 = 0.1706	0.00162
x2 = 0.1821	0.00169
x2 = 0.1943	0.00178
x2 = 0.2016	0.00181
x2 = 0.2399	0.00203
x2 = 0.2414	0.00209
x2 = 0.2748	0.00227
x2 = 0.2915	0.00239
x2 = 0.3065	0.00236
x2 = 0.3231	0.0025
x2 = 0.3356	0.00249
x2 = 0.3624	0.00263
x2 = 0.3693	0.00266
x2 = 0.3816	0.00275
x2 = 0.387	0.0027
x2 = 0.3889	0.00272
x2 = 0.4009	0.00275
x2 = 0.4099	0.00279
x2 = 0.417	0.00276
x2 = 0.4311	0.00279
x2 = 0.4384	0.00282
x2 = 0.4431	0.00282
x2 = 0.4498	0.00286
x2 = 0.4508	0.00278
x2 = 0.4514	0.00285
x2 = 0.4837	0.00286
x2 = 0.4882	0.00289
x2 = 0.4884	0.00286
x2 = 0.5071	0.00291
x2 = 0.5269	0.00284
x2 = 0.5337	0.00287
x2 = 0.5394	0.00285
x2 = 0.5525	0.00286
x2 = 0.5886	0.0028
x2 = 0.5902	0.00281
x2 = 0.6096	0.00273
x2 = 0.6221	0.00272
x2 = 0.6561	0.00261
x2 = 0.7008	0.0024
x2 = 0.741	0.00221
x2 = 0.7793	0.00196
x2 = 0.7927	0.00187
x2 = 0.8067	0.00171
x2 = 0.8211	0.00161
x2 = 0.8241	0.00165
x2 = 0.8361	0.00151
x2 = 0.8513	0.00144
x2 = 0.8516	0.00137
x2 = 0.8677	0.00129
x2 = 0.8844	0.00113
x2 = 0.9018	0.000956
x2 = 0.9198	0.000791
x2 = 0.9387	0.000621
x2 = 0.9583	0.000422
x2 = 0.9787	0.000218

COC(=O)[C@@H](C)CO [(2S)-3-hydroxy-2-methyl-propanoic acid methyl ester]
Conditions	mass density [kg/m3]
[1]	1069.6

ClC[C@@H]1CO1 [(2S)-chloromethyl-oxirane]
Conditions	mass density [kg/m3]
[1]	1093.5

C[C@@H]1COC(=O)O1 [(R)-4-methyl-1,3-dioxolan-2-one]
Conditions	mass density [kg/m3]
[1]	1199.4

Source: the NIST ThermoML archive (doi:10.1016/j.jct.2005.10.019)
